Results reported in the NIST ThermoML archive (doi:10.1016/j.fluid.2012.11.009).
Values joined by “and” are separate entries in the source; they are usually repeats but may differ in a detail not shown here. Equal entries are not always repeated. ± gives the expanded uncertainty stated by the source.

Settings: Liquid, Distillation

**Q.** With `CC(O)CNCC(C)O` (centres undefined) [N-(2-hydroxypropyl)-2-hydroxy-1-propanamine] as the molecule, how does the “vapor or sublimation pressure” value (420 K) read?
**A.** The value was 2.8 ± 2.4 kPa.

**Q.** And the “vapor or sublimation pressure” value (422 K)?
**A.** The value was 3 ± 2.4 kPa and 3.1 ± 2.4 kPa.

**Q.** And the “vapor or sublimation pressure” value (428 K)?
**A.** The value was 4 ± 2.4 kPa and 4.4 ± 2.4 kPa.

**Q.** What about the “vapor or sublimation pressure” value (429 K) of the same molecule?
**A.** Its value is 4.1 ± 2.4 kPa.

**Q.** What about the “vapor or sublimation pressure” value (433 K) of the same molecule?
**A.** Its value is 4.9 ± 2.4 kPa and 5.1 ± 2.4 kPa.

**Q.** What about the “vapor or sublimation pressure” value (437 K) of the same molecule?
**A.** The value was 5.9 ± 2.5 kPa.

**Q.** What about the “vapor or sublimation pressure” value (440 K) of the same molecule?
**A.** The value was 6.8 ± 2.5 kPa.

**Q.** What about the “vapor or sublimation pressure” value (441 K) of the same molecule?
**A.** The value was 7 ± 2.5 kPa.

**Q.** What about the “vapor or sublimation pressure” value (444 K) of the same molecule?
**A.** The value was 7.8 ± 2.5 kPa and 7.9 ± 2.5 kPa.

**Q.** What about the “vapor or sublimation pressure” value (447 K) of the same molecule?
**A.** The value was 8.9 ± 2.5 kPa.

**Q.** What about the “vapor or sublimation pressure” value (448 K) of the same molecule?
**A.** The value was 9.9 ± 2.5 kPa.

**Q.** What about the “vapor or sublimation pressure” value (449 K) of the same molecule?
**A.** The value was 9.9 ± 2.5 kPa.

**Q.** And the “vapor or sublimation pressure” value (450 K)?
**A.** Its value is 10.1 ± 2.6 kPa.

**Q.** And the “vapor or sublimation pressure” value (451 K)?
**A.** Its value is 10.6 ± 2.5 kPa and 10.8 ± 2.5 kPa.

**Q.** And the “vapor or sublimation pressure” value (452 K)?
**A.** The value was 10.9 ± 2.6 kPa.

**Q.** And the “vapor or sublimation pressure” value (453 K)?
**A.** Its value is 11.9 ± 2.6 kPa.

**Q.** And the “vapor or sublimation pressure” value (454 K)?
**A.** Its value is 11.8 ± 2.5 kPa and 11.9 ± 2.5 kPa.

**Q.** And the “vapor or sublimation pressure” value (456 K)?
**A.** The value was 12.9 ± 2.6 kPa.

**Q.** And the “vapor or sublimation pressure” value (457 K)?
**A.** Its value is 13.1 ± 2.6 kPa and 13.9 ± 2.6 kPa.

**Q.** What about the “vapor or sublimation pressure” value (458 K) of the same molecule?
**A.** The value was 13.9 ± 2.7 kPa and 14 ± 2.7 kPa.

**Q.** And the “vapor or sublimation pressure” value (460 K)?
**A.** Its value is 14.9 ± 2.7 kPa.

**Q.** What about the “vapor or sublimation pressure” value (461 K) of the same molecule?
**A.** Its value is 15.8 ± 2.6 kPa.

**Q.** What about the “vapor or sublimation pressure” value (464 K) of the same molecule?
**A.** The value was 17.2 ± 2.6 kPa.

**Q.** What about the “vapor or sublimation pressure” value (465 K) of the same molecule?
**A.** Its value is 17.9 ± 2.6 kPa.
